Test: Evaporation time for various aerosol sterilizer
Assay type: physicochemical
Description: Evaporation Time for Various Aerosol Sterilizer

O [H2O]
Evaporation Time: state (1 minute): wet
Evaporation Time: state (2 minutes): wet
Evaporation Time: state (5 minutes): humid
Evaporation Time: state (15 minutes): droplets
Evaporation Time: state (30 minutes): droplets
Evaporation Time: state (40 minutes): droplets
Evaporation Time: state (45 minutes): dry

Reference: US20010053333A1, “Antimicrobial flash-dry disinfectant aerosol” (priority 2000, published 2001)
